pIC50: −log10 of the molar value.
How the values were obtained:
[1] = target: human Nav1.7 (Homo sapiens (Human), UniProt Q15858); experiment: Human Nav1.7 inhibitory activity evaluation (automated patch clamp QPatch16X, HEK293A cells stably expressing human Nav1.7 and human Navβ1); type: cell-based; conditions: human Nav1.7, automated patch clamp
Summary of the method: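 QPatch16X whole-cell recordings at room temperature from HEK293A cells stably expressing human Nav1.7 with Navβ1, CsF-based internal solution, pH 7.4 external, 0.1% DMSO. From −100 mV holding, protocol included a 15 s hold at a potential inactivating ~30-40% of channels; IC50 from inward current at the second −10 mV pulse.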

[2] = target: human Nav1.5 (Homo sapiens (Human), UniProt Q14524); experiment: Human Nav1.5 inhibitory activity evaluation (automated patch clamp QPatch16X, HEK293 cells stably expressing human Nav1.5); type: cell-based; conditions: human Nav1.5, automated patch clamp
Summary of the method: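 Whole-cell automated patch clamp at room temperature on HEK293 stably expressing human Nav1.5; holding −80 mV, 20 consecutive cardiomyocyte action-potential-like test pulses before and after compound (0.1% DMSO). Inhibition measured on inward current at 20th pulse; IC50 from concentration-response curve.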

Chain of human Nav1.7 (Q15858 whole entry): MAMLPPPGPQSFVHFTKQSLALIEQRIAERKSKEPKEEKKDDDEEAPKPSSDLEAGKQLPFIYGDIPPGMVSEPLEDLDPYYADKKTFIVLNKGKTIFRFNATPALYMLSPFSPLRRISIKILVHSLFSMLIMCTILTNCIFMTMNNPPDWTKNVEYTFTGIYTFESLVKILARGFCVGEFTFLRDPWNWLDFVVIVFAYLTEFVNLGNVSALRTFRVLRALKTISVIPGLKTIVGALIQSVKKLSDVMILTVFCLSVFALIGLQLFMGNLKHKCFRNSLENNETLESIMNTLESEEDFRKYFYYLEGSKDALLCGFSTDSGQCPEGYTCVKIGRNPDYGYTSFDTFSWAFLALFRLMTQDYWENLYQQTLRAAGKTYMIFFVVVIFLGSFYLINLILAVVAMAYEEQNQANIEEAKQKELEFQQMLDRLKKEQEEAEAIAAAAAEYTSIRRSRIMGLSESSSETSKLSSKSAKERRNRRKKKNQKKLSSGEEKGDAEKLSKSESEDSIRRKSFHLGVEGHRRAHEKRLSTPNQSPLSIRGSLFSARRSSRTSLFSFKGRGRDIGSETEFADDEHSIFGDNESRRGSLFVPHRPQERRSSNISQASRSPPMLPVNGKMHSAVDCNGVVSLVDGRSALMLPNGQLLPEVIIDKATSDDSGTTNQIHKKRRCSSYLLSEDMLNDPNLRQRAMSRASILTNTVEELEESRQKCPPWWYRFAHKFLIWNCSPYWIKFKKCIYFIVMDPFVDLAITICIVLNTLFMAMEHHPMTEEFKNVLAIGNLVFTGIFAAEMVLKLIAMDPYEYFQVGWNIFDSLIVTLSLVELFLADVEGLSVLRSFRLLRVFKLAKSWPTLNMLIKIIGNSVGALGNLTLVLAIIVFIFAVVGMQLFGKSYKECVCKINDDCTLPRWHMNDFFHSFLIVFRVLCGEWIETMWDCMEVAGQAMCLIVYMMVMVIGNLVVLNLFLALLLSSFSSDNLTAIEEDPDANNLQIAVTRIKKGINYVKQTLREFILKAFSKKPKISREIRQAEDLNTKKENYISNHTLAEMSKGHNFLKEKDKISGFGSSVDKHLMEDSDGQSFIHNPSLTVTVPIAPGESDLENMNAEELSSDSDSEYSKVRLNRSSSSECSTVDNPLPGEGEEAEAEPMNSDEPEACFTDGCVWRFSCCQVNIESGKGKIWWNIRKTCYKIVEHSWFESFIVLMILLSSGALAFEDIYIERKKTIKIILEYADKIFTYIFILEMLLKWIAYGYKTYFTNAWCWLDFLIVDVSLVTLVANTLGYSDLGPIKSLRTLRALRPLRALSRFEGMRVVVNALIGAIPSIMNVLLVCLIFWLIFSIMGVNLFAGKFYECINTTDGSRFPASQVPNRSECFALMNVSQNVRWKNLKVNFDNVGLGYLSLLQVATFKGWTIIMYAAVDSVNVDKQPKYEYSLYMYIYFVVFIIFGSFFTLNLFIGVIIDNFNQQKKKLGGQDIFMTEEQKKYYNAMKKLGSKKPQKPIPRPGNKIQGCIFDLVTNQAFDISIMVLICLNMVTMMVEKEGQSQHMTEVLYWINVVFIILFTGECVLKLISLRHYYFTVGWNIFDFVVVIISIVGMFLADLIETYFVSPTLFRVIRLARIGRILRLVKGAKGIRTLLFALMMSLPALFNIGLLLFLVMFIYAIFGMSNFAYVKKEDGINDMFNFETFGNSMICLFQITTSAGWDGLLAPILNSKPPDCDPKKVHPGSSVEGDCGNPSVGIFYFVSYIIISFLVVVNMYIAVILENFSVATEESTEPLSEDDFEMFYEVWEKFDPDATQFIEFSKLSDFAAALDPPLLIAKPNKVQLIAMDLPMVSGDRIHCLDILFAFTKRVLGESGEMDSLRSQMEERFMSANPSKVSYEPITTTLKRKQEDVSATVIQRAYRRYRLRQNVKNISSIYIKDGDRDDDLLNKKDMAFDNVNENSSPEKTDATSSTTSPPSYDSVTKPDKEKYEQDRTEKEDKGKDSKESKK
Chain of human Nav1.7 (Q07699 19-218 partner): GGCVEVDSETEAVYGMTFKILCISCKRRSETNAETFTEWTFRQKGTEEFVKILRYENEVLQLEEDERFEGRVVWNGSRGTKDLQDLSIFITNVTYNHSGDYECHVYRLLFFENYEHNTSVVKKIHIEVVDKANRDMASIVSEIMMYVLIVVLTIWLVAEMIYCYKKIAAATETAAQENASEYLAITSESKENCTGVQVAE
Chain of human Nav1.5 (Q14524 whole entry): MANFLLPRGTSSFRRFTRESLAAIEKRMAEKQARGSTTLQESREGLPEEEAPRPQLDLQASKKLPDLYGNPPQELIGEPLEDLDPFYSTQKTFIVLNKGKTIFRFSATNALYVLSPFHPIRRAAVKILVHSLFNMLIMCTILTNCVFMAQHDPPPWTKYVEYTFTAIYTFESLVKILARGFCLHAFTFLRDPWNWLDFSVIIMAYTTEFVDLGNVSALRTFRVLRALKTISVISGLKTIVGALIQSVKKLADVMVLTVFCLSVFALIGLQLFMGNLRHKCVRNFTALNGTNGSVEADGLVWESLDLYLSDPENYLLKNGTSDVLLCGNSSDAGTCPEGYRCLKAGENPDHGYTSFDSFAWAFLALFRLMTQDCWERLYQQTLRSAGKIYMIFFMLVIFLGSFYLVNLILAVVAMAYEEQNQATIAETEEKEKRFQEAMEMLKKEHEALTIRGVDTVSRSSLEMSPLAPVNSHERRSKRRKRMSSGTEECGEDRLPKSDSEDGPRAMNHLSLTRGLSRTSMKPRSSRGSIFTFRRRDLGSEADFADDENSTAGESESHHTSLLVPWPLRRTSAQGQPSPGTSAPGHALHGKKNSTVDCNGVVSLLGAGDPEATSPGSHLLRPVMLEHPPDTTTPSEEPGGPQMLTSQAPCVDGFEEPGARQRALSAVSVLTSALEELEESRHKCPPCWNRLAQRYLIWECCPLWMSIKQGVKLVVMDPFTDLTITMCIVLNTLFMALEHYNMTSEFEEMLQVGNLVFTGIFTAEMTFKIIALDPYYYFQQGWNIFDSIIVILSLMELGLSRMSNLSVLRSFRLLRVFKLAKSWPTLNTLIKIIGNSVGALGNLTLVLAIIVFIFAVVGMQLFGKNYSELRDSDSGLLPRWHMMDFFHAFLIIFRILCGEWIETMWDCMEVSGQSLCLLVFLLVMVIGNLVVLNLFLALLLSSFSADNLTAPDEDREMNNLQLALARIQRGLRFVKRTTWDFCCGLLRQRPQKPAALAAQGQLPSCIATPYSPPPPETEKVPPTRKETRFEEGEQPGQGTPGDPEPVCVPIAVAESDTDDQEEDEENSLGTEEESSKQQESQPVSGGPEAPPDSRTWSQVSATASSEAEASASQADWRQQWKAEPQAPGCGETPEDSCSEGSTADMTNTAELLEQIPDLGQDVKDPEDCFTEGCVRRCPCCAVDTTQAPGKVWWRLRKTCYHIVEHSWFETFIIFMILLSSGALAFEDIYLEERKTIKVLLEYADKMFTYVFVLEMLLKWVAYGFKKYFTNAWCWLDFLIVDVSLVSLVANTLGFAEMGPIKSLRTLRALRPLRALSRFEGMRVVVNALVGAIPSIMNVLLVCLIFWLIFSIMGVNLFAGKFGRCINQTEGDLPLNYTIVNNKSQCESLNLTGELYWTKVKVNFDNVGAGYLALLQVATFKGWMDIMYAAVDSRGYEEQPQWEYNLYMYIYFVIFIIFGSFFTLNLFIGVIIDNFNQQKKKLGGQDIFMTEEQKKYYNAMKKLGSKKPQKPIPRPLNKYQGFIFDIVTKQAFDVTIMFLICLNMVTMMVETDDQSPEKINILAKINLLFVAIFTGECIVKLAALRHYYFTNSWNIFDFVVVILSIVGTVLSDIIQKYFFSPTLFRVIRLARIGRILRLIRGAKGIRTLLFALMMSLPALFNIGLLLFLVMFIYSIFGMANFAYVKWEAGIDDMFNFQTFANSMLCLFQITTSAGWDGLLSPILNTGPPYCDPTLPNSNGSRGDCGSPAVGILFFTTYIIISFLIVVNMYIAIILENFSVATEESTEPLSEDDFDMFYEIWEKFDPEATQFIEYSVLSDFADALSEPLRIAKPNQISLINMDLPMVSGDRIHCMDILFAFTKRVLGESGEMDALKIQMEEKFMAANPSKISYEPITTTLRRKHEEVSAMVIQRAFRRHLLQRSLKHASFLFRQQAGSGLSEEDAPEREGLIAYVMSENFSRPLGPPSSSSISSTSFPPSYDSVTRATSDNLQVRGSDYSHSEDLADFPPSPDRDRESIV

SMILES | pIC50 [1] | pIC50 [2]
O=C(N[C@H]1COc2ccc(C(F)(F)F)cc2C1)c1cc2n(n1)CCC(OCC(F)(F)F)CO2 (single isomer, unassigned) [257 (isomer A)] | > 6.00 | ≤ 5.52
CC(C)(F)C1CCn2nc(C(=O)N[C@H]3COc4ccc(C#N)cc4C3)cc2O1 (single isomer, unassigned) [547 (isomer A)] | > 5.00 | ≤ 5.52
N#Cc1ccc2c(c1)C[C@@H](NC(=O)c1cc3n(n1)CCC(COCC1(F)CC1)O3)CO2 (single isomer, unassigned) [552 (isomer A)] | > 5.00 | ≤ 5.52
N#CC1(COCC2CCn3nc(C(=O)N[C@H]4COc5ccc(C(F)(F)F)cc5C4)cc3O2)CC1 (single isomer, unassigned) [554 (isomer A)] | > 6.00 | ≤ 5.52
N#CC1(COCC2CCn3nc(C(=O)N[C@H]4COc5ccc(Cl)cc5C4)cc3O2)CC1 (single isomer, unassigned) [563 (isomer A)] | > 5.00 | 5.52 to 6.00
N#CC1(COCC2CCn3nc(C(=O)N[C@H]4COc5ccc(Cl)cc5C4)cc3O2)CC1 (single isomer, unassigned) [563 (isomer B)] | > 6.00 | ≤ 5.52
COC1c2cc(C(F)(F)F)ccc2OC[C@@H]1NC(=O)c1cc2n(n1)CCC(COCC(F)(F)F)O2 (single isomer, unassigned) [598 (isomer B)] | > 6.00 | 5.52 to 6.00
O=C(N[C@H]1COc2ccc(C(F)(F)F)cc2C1O)c1cc2n(n1)CC(CCOCC(F)(F)F)O2 (single isomer, unassigned) [600 (isomer B)] | > 6.00 | 5.52 to 6.00
O=C(N[C@H]1COc2ccc(CC(F)F)cc2C1)c1cc2n(n1)CCC(COCC(F)(F)F)CO2 (single isomer, unassigned) [601 (isomer B)] | > 5.00 | ≤ 5.52
O=C(N[C@H]1COc2ccc(COCC(F)(F)F)cc2C1)c1cc2n(n1)CCC(COCC(F)(F)F)CO2 (single isomer, unassigned) [602 (isomer A)] | > 6.00 | ≤ 5.52
O=C(N[C@H]1COc2ccc(C(F)(F)F)cc2C1O)c1cc2n(n1)CC(CCCOCC(F)(F)F)O2 (single isomer, unassigned) [603 (isomer B)] | > 6.00 | ≤ 5.52
N#Cc1ccc2c(c1)C[C@@H](NC(=O)c1cc3n(n1)CC(CCCOCC(F)F)O3)CO2 (single isomer, unassigned) [604 (isomer A)] | > 6.00 | 5.52 to 6.00
O=C(N[C@H]1COc2ccc(C(F)(F)F)cc2C1O)c1cc2n(n1)CC(CCCOCC(F)F)O2 (single isomer, unassigned) [608 (isomer A)] | > 6.00 | ≤ 5.52

Now from value to molecule, other results behind:

pIC50 [1] | SMILES | pIC50 [2]
> 6.00 | N#Cc1ccc2c(c1)C[C@@H](NC(=O)c1cc3n(n1)CC(CCCOCC(F)(F)F)O3)CO2 (single isomer, unassigned) [246 (isomer A)] | 5.52 to 6.00
> 6.00 | N#Cc1ccc2c(c1)C[C@@H](NC(=O)c1cc3n(n1)CC(CCCOCC(F)(F)F)O3)CO2 (single isomer, unassigned) [246 (isomer B)] | ≤ 5.52
> 6.00 | N#Cc1ccc2c(c1)C[C@@H](NC(=O)c1cc3n(n1)CC(CCCOC(F)(F)F)O3)CO2 (single isomer, unassigned) [247 (isomer A)] | 5.52 to 6.00
> 6.00 | N#Cc1ccc2c(c1)C[C@@H](NC(=O)c1cc3n(n1)CC(CCCOC(F)F)O3)CO2 (single isomer, unassigned) [248 (isomer A)] | 5.52 to 6.00
> 6.00 | O=C(N[C@H]1COc2ccc(Cl)cc2C1)c1cc2n(n1)CCC(OCC(F)(F)F)CO2 (single isomer, unassigned) [256 (isomer A)] | ≤ 5.52
> 6.00 | O=C(N[C@H]1COc2ccc(Cl)cc2C1)c1cc2n(n1)CCC(OCC(F)(F)F)CO2 (single isomer, unassigned) [256 (isomer B)] | 5.52 to 6.00

From patent US12421225B2, “Heteroaromatic amide derivative and medicament containing the same” (KAKEN PHARMACEUTICAL CO., LTD., priority 2018, dated 2025)
